Measurements as given in patent US20040023893A1, “Novel coumarin derivatives and the salts thereof, a process for the preparation thereof and their use in the pharmaceutical field” (priority 2000, published 2004).
Like-named read-outs stand apart in the source and are kept apart here.

What was measured:
[1] = test system: carrageenin-induced oedema in rat paw; experiment: Carrageenin-induced oedema in rat paw; format: in vivo; conditions: 2 mg/Kg i.v. 5 minutes before 1.5 mg carrageenin intraplantar, paws weighed 3 hours later, saline controls = 100%
Method: Test 3—Reduction in Inflammation in Carrageenin-Induced Oedema in Rat Paw
A model of acute inflammation induced by intraplantar injection of 1.5 mg of carrageenin in rat paw was used. Administration of the compounds (2 mg/Kg) was by the intravenous route 5 minutes before oedema was induced: 3 hours later the animals were sacrificed and their paws were weighed as an indication of inflammation. The control animals received saline instead of the test compounds. The weight of the paws of the control animals was taken to correspond to 100% on the inflammation index.

[2] = test system: TNF release, human blood; experiment: Inhibition of TNF release after stimulation with LPS in vitro, whole blood (L929 mortality readout); format: cell-based; conditions: heparinised whole blood stimulated with LPS; concentration (± standard error) inhibiting L929 fibroblast mortality by 50%; read-out: Human blood CI50
Method: (§1) Test 1—Inhibition of TNF Release After Stimulation with LPS in vitro
(§2) The test compound was added to the culture medium in a murine macrophage line (J774) or to whole blood anti-coagulated with heparin. The cells were then stimulated with bacterial lipopolysacccharide. After incubation at 37° C. for a suitable length of time, the supernatant was removed from the culture and incubated with a line of murine fibroblasts (L929), sensitive to TNF. The quantity of TNF released after stimulation with LPS is measured by comparing mortality of the L929 cells with that of the controls. Table 1 reports for the single compounds the concentration (±standard error) able to inhibit fibroblast mortality (L929) by 50%.

[3] = test system: superoxide anions, human whole blood; experiment: Inhibition of superoxide anion formation induced by f-MLP in human whole blood; format: cell-based; conditions: 20 minutes preincubation at 37° C., f-MLP with cytochalasin B, read-out: CI50 (superoxide anion formation, Cytochrome C)
Method: Test 5—Inhibition of the Formation of Superoxide anions Induced by f-MLP in Human Whole Blood
Samples of whole blood diluted with PBS Cytochrome C were incubated for 20 minutes at 37° C. with the test compounds or saline before adding the chermotactic agent f-MLP (0.1 μm/l) in the presence of cytochalasin B. After 20 minutes of activation with this agent, the samples were centrifuged and readings were taken of the supernatants with a spectrophotometer to assess the reduction in Cytochrome C. Table 5 reports the concentrations that are effective in inhibiting the loss of Cytochrome C by 50%.

[4] = test system: IL-1β; experiment: Inhibition of the release of IL-1β following stimulation with LPS in vivo; conditions: rat, blood 120 minutes after LPS, ELISA, vs saline controls
Method: (§3) Test 2—Inhibition of the Release of TNF and IL-β Following Stimulation with LPS in vivo
(§4) Conscious rats were injected with a dose of LPS, which is able to stimulate the release of TNF and IL-1β, having first received an intravenous administration (15 minutes beforehand) of the test compound at a dose of 0.5 mg/Kg or 2 mg/Kg. Blood levels of TNF and IL-1β were measured by the ELISA method on blood samples taken 75 minutes and 120 minutes after LPS respectively.
(§5) Table 2 below reports the percent of inhibition of each product compared to that of the controls treated with saline.

[5] = test system: TNF release, murine macrophage line (J774); experiment: Inhibition of TNF release after stimulation with LPS in vitro, J774 macrophages (L929 mortality readout); format: cell-based; conditions: J774 macrophages stimulated with LPS, concentration (± standard error) inhibiting L929 fibroblast mortality by 50%, read-out: J774 CI50
Method: as §1, §2

[6] = test system: Male CD-1 mice; experiment: Toxicity after a single intravenous administration; format: in vivo
Excerpt: (§6) Test 7—Toxicity After a Single Intravenous Administration
(§7) Male CD-1 mice were used to assess the maximum non-lethal does (MNLD—the highest does at which no cases of mortality are observed) and the maximum tolerated does (MTD—does at which no evident or marked signs of tocicity or altered behaviour are observed).

[7] = test system: Salmonella typhimurium (TA 98 and TA 100) and Escherichia coli (WP2 pKM101 and WP2 uvrA pKM1091); experiment: Mutagenesis (Mini-Ames test); format: cell-based; conditions: with and without microsomal liver enzyme preparation
Method: Test 8—Mutagenesis (Mini-Ames Test)
The Mini-Ames test is a version of the traditional Ames test which involves the incubation of bacterial cells on 35-mm dishes instead of 100-mm dishes, and it requires a smaller quantity of product while maintaining the reliability of the result.
The test is conducted on two strains of Salmonella typhimurium requiring histidine (TA 98 and TA 100) and two strains of Escherichia coli requiring tryptophan (WP2 pKM101 and WP2 uvrA pKM1091).
The bacterial cells were exposed to different concentrations of the test compounds in the presence and absence of a microsomal liver enzyme preparation, to reveal any possible metabolite activity.
Mutagenic activity was determined as the ability of the test compound to induce a significant increase in the number of mutant clones compared to those developed spontaneously in the cultures with the control vehicle.

[8] = test system: nitrite-nitrate release; experiment: Inhibition of the release of nitrite-nitrate in rat plasma after LPS; format: in vivo; conditions: 25 mg/Kg o.s. 30 minutes before and 3 hours after LPS 0.1 mg/Kg i.v., blood 8 hours after LPS, Griess reagent, saline controls = 100%
Method: Test 4—Inhibition of the Release of Nitrite-Nitrate in Rat Plasma
The release of nitrite-nitrite was measured with Griess reagent in blood samples taken 8 hours after the administration of LPS (0.1 mg/Kg) i.v.
The animals were treated with the compounds by o.s. (25 mg/Kg) 30 minutes before and 3 hours after LPS. The control animals received saline instead of the test compounds. The values for the release of nitrite-nitrate were made to correspond to 100%.

[9] = test system: platelet aggregation, human whole blood; experiment: Inhibition of collagen-induced platelet aggregation in human whole blood; format: cell-based; conditions: collagen 1 μg/ml, 1 minute preincubation, count 5 minutes after collagen, vs saline, read-out: CI50 (platelet aggregation)
Method: Test 6—Inhibition of Collagen-Induced Platelet Aggregation in Human Whole Blood
The aggregation event was analysed by counting the single non-aggregated platelets with a cell counter 5 minutes after adding collagen (1 μg/ml). In these working conditions, collagen induces platelet aggregation of over 80%. The test compounds or saline as control were preincubated for 1 minute before the collagen was added.
Table 6 reports the concentrations that inhibit platelet aggregation by 50% compared to saline.

[10] = test system: TNF; experiment: Inhibition of the release of TNF following stimulation with LPS in vivo; conditions: rat, blood 75 minutes after LPS, ELISA, vs saline controls
Method: as §3, §4, §5

[11] = Toxicity after a single intravenous administration; format: in vivo; conditions: mouse, in vivo, male CD-1 mice, read-out: DMT (maximum tolerated dose, MTD)
Excerpt: as §6, §7

[12] = dose of 0.5 mg/Kg i.v. 15 minutes before LPS
[13] = dose of 2 mg/Kg i.v. 15 minutes before LPS
[14] = iv, dose of 0.5 mg/Kg i.v. 15 minutes before LPS
[15] = iv, dose of 2 mg/Kg i.v. 15 minutes before LPS

SMILES	/o vs controls (paw weight, inflammation index) [1]	IC50 [2]	IC50 [3]	% of inhibition of IL-1β [4, 12]	% of inhibition of IL-1β [4, 13]	IC50 [5]	DMNL (maximum non-lethal dose, MNLD) [6]	DMT (maximum tolerated dose, MTD) [6]	Mutagenic activity (Mini-Ames test) [7]	% vs controls (release of nitrite-nitrate) [8]	IC50 [9]	% of inhibition of TNF [10, 12]	% of inhibition of TNF [10, 13]	inhibition at 0.5 mg/kg [4, 14]	inhibition at 2 mg/kg [4, 15]	IC50 ([5]; Mus musculus)	MTD [11]	IC50 ([9]; Platelet)	inhibition at 0.5 mg/kg [10, 14]	inhibition at 2 mg/kg [10, 15]
C[C@H]1C[C@@H]2[C@H]([C@@H](O)C[C@@]3(C)[C@H]2CC[C@]3(O)C(=O)CO)[C@@]2(C)C=CC(=O)C=C12 [Methylprednisolone, reference compound]	56 /o																			
CCCCC(O)COc1ccc2c(C)c(CCN(CC)CC)c(=O)oc2c1.Cl (centres unmarked) [Compound 201273]	67 /o	40.4 ± 13.5 µM	> 100 µM	67%	39%	27.5 ± 5.3 µM	100 mg(Kg	25 mg/kg	None of the tested compounds (203152, 201273, 201326 and 201330) proved to be mutagenic	76%	> 100 µM	72%	84%							
CCCCC[C@H](O)/C=C/[C@@H]1[C@H]2C/C(=C/CCCC(=O)O)O[C@H]2C[C@H]1O [PG12, reference compound]											0.05 µM									
C[C@H]1C[C@H]2[C@@H]3CCC4=CC(=O)C=C[C@]4(C)[C@@]3(F)[C@@H](O)C[C@]2(C)[C@@]1(O)C(=O)CO [Betamethasone, reference compound]										20%										
COc1ccc2c(c1)c(CC(=O)O)c(C)n2C(=O)c1ccc(Cl)cc1 [Indomethacin, reference compound]	57 /o																			
CCOC(=O)[C@@H](N)CSCC(O)COc1ccc2c(C)c(CCN(CC)CC)c(=O)oc2c1.Cl.Cl (some centres unmarked) [Compound 201261]	86 /o	9 µM				25.4 µM	200 mg(Kg	50 mg/kg		98%	> 100 µM									
CCOC(=O)COc1ccc2c(C)c(CCN(CC)CC)c(=O)oc2c1Cl [Compound 201006, Cloricromene, reference compound]	79 /o	78.6 ± 10 µM	52 µM				12.5 mg(Kg			99%				45%	28%	57.9 ± 20 µM	6.25 mg/kg	35 µM	9%	30%
CCN(CC)CCc1c(C)c2ccc(OCC(=O)NC3CCCCC3)c(Cl)c2oc1=O.Cl.Cl [Compound 201330]	77 /o	12.6 ± 3.5 µM	36 µM	33%	57%	12 ± 3.9 µM	50 mg(Kg	25 mg/kg	None of the tested compounds (203152, 201273, 201326 and 201330) proved to be mutagenic		93 µM	75%	62%							
C=CCc1cc2c(C)c(CN3CCOCC3)c(=O)oc2c(CC=C)c1OCCCOc1c(CC=C)cc2c(C)c(CN3CCOCC3)c(=O)oc2c1CC=C.Cl.Cl [Compound 203152]	90 /o	> 80 µM	> 100 µM	64%	60%	13.3 ± 9 µM	200 mg(Kg	50 mg/kg	None of the tested compounds (203152, 201273, 201326 and 201330) proved to be mutagenic	108%	> 100 µM	72%	73%							
CCCCC(O)COc1ccc2c(C)c(CCN(CC)CC)c(=O)oc2c1Cl.Cl (centres unmarked) [Compound 201326]	58 /o	23 ± 2 µM	> 100 µM	40%	62%	10.5 ± 3 µM	50 mg(Kg	6.25 mg/kg	None of the tested compounds (203152, 201273, 201326 and 201330) proved to be mutagenic	62%	78 µM	85%	77%							
